# How the values were obtained:
# Human δ-opioid (DOP) = molecular target: T1, Human δ-opioid (DOP) (Homo sapiens, UniProt P41143); assay: Radioligand binding, human δ-opioid (DOP) membranes, FlashPlate, [3H]-Bremazocine; conditions: compound at 10 μM; for A1 radioligand binding inhibition: human δ-opioid (DOP) membranes
# T1 construct: purchased Perkin Elmer Biosignal
# In short: (§1)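 Cloned human receptor membranes were coated onto FlashPlate wells and incubated with radioligand and compound (added from a 0.5 mM DMSO daughter plate) for 1 hour at room temperature in the dark. Scintillation counting gave percent inhibition, with DMSO defining total and reference ligand defining non-specific binding.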
# Human opioid (ORL1) = molecular target: T2, Human opioid (ORL1) (Homo sapiens, UniProt P41146); assay: Radioligand binding, human opioid ORL1 membranes, FlashPlate, [125I]-Nociceptin; conditions: compound at 10 μM
# T2 construct: purchased Perkin Elmer Biosignal
# In short: as §1
# Human Melanocortin (MC4) = molecular target: T3, Human Melanocortin (MC4) (Homo sapiens, UniProt P32245); assay: Radioligand binding, human melanocortin MC4 membranes, FlashPlate, [125I]-NDP-αMSH; conditions: compound at 10 μM; for A4 radioligand binding inhibition: human melanocortin MC4 membranes
# T3 construct: purchased Perkin Elmer Biosignal
# In short: as §1
# Human melanocortin (MC5) = molecular target: T4, Human melanocortin (MC5) (Homo sapiens, UniProt P33032); assay: Radioligand binding, human melanocortin MC5 membranes, FlashPlate, [125I]-NDP-αMSH; conditions: compound at 10 μM; for A5 radioligand binding inhibition: human melanocortin MC5 membranes
# T4 construct: purchased Perkin Elmer Biosignal
# In short: as §1
# Human neurokinin (NK1) = molecular target: T5, Human neurokinin (NK1) (Homo sapiens, UniProt P25103); assay: Radioligand binding, human neurokinin NK1 membranes, filtration, [125I]-Substance P; conditions: compound at 10 μM; for A8 radioligand binding inhibition: human neurokinin NK1 membranes
# T5 construct: purchased Perkin Elmer Biosignal
# In short: (§2)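 Membranes from cloned human receptors were incubated with compound and radioligand for 1 hour at room temperature. Bound ligand was collected on 0.3% PEI-soaked filters, washed with cold 50 mM Tris-HCl pH 7.4, and counted by scintillation. Percent inhibition was computed against DMSO totals and reference-ligand nonspecific wells.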
# Human Melanocortin (MC3) = molecular target: T6, Human Melanocortin (MC3) (Homo sapiens, UniProt P41968); assay: Radioligand binding, human melanocortin MC3 membranes, FlashPlate, [125I]-NDP-αMSH; conditions: compound at 10 μM; for A3 radioligand binding inhibition: human melanocortin MC3 membranes
# T6 construct: purchased Perkin Elmer Biosignal
# In short: as §1
# [1] = molecular target: T7, Human neuropeptide Y (NPY-Y1) (Homo sapiens, UniProt P25929); assay: Radioligand binding, human neuropeptide Y NPY-Y1 membranes, FlashPlate, [125I]-PYY; conditions: compound at 10 μM
# T7 construct: purchased Perkin Elmer Biosignal
# T7 sequence (P25929 1-384): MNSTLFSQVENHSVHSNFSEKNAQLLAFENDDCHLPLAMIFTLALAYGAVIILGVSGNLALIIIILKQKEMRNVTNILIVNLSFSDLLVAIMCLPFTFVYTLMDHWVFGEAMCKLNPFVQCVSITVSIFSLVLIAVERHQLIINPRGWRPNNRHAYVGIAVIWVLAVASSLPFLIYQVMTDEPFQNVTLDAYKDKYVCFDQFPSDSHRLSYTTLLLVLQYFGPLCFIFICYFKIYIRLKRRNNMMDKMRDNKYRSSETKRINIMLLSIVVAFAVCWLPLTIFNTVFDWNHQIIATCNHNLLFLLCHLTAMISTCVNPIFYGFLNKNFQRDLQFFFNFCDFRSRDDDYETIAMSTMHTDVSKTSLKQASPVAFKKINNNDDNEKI
# In short: as §1
# Mouse urotensin (mUR2) = molecular target: T8, Mouse urotensin (mUR2) (Mus musculus, UniProt Q8VIH9); assay: Radioligand binding, mouse urotensin mUR2 membranes, FlashPlate, [125I]-Urotensin II; conditions: compound at 10 μM; for A11 radioligand binding inhibition: mouse urotensin mUR2 membranes
# T8 construct: purchased Perkin Elmer Biosignal
# T8 sequence (Q8VIH9 1-385): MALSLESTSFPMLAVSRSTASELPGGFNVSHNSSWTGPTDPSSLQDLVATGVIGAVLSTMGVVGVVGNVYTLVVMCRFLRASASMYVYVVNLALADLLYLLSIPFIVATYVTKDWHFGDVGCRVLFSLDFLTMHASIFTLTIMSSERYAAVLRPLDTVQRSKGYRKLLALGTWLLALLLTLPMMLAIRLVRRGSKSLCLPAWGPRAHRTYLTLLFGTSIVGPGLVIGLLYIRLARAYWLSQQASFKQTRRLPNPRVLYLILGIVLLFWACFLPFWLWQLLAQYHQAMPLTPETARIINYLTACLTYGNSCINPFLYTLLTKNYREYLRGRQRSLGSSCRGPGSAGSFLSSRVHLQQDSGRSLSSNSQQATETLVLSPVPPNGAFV
# In short: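 Cloned mouse urotensin (mUR2) receptor membranes from Perkin Elmer Biosignal were immobilized in FlashPlate microplates using a proprietary coating. Each well got 19.5 μl buffer, then 0.5 μl of DMSO, reference ligand, or compound. Adding 5 μl of [125I]-Urotensin II, diluted to 5× final concentration in binding buffer, started binding. Plates were sealed with TopSeal-A and incubated 1 hour at room temperature in the dark. Wells were counted for 30 seconds each on a TopCount after a 60-second delay, and percentage inhibition was calculated.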
# [2] = molecular target: T9, Human melanin-concentrating hormone (MCH1) (Homo sapiens, UniProt Q99705); assay: Radioligand binding, human melanin-concentrating hormone MCH1 membranes, FlashPlate, [125I]-S36057; conditions: compound at 10 μM; for A6 radioligand binding inhibition: human MCH1 membranes
# T9 construct: purchased Perkin Elmer Biosignal
# In short: as §1
# Human μ-opioid (MOP) = molecular target: T10, Human μ-opioid (MOP) (Homo sapiens, UniProt P35372); assay: Radioligand binding, human μ-opioid (MOP) membranes, FlashPlate, [3H]-Naloxone; conditions: compound at 10 μM; for A7 radioligand binding inhibition: human μ-opioid (MOP) membranes
# T10 construct: purchased Perkin Elmer Biosignal
# In short: as §1
# Human κ-Opioid (KOP) = molecular target: T11, Human κ-Opioid (KOP) (Homo sapiens, UniProt P41145); assay: Radioligand binding, human κ-opioid (KOP) membranes, filtration, [3H]-Diprenorphine; conditions: compound at 10 μM; for A2 radioligand binding inhibition: human κ-opioid (KOP) membranes
# T11 construct: purchased Perkin Elmer Biosignal
# In short: as §2
# T6 sequence (P41968 whole entry): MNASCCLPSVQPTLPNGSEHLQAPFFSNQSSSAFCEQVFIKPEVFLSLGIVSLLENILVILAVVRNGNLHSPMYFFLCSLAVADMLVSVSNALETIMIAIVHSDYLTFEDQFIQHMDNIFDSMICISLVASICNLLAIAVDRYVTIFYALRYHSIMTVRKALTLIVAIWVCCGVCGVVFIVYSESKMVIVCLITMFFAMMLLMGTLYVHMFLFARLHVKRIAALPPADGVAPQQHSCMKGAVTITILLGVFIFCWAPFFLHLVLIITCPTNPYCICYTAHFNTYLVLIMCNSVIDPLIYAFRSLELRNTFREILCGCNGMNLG
# T5 sequence (P25103 whole entry): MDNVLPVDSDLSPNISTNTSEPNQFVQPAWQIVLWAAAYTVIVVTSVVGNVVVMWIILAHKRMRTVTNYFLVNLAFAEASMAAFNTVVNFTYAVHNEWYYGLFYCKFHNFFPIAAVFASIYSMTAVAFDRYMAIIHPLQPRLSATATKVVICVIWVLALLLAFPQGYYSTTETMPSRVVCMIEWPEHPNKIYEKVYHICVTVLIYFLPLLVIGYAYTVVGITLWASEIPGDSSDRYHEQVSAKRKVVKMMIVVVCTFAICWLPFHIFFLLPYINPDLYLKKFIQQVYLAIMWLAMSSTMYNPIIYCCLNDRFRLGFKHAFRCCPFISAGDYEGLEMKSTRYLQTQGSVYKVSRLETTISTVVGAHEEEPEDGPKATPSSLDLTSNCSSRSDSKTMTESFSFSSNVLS
# T9 sequence (Q99705 whole entry): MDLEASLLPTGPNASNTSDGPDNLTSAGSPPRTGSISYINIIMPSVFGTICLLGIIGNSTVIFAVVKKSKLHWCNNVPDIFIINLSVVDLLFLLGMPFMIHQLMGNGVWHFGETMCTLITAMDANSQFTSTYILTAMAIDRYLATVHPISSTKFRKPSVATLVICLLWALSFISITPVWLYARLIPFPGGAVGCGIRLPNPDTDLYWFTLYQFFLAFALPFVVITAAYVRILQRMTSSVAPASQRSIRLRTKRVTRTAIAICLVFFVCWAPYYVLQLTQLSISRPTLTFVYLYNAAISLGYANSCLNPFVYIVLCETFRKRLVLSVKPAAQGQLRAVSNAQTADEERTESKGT
# T11 sequence (P41145 whole entry): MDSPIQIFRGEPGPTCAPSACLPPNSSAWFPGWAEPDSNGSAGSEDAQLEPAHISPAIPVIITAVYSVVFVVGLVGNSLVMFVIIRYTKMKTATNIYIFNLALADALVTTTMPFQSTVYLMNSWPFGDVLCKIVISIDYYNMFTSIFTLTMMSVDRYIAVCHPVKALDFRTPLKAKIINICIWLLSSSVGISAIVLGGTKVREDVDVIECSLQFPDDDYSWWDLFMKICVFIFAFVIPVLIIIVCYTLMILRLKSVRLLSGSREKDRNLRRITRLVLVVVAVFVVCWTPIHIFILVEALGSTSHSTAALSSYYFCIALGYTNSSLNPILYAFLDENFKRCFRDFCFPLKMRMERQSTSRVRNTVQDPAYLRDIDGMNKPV
# T4 sequence (P33032 whole entry): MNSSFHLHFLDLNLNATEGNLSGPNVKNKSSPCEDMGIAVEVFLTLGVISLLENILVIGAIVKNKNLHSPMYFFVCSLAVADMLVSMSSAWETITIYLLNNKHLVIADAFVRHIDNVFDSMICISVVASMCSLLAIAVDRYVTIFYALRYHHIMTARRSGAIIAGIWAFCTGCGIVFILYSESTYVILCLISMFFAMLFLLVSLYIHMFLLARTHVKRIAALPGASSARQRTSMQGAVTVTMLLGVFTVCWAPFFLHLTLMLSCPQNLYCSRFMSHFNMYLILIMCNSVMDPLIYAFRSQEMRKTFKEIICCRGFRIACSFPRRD
# T3 sequence (P32245 whole entry): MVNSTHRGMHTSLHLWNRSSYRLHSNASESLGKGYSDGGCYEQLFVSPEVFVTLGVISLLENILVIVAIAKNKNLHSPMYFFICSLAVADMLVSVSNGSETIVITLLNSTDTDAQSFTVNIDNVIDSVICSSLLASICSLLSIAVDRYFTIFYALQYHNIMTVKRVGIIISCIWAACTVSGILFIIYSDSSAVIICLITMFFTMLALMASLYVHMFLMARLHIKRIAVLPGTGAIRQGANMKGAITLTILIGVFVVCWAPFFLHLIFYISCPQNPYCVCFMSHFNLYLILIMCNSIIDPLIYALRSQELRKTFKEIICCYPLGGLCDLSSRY
# T10 sequence (P35372 whole entry): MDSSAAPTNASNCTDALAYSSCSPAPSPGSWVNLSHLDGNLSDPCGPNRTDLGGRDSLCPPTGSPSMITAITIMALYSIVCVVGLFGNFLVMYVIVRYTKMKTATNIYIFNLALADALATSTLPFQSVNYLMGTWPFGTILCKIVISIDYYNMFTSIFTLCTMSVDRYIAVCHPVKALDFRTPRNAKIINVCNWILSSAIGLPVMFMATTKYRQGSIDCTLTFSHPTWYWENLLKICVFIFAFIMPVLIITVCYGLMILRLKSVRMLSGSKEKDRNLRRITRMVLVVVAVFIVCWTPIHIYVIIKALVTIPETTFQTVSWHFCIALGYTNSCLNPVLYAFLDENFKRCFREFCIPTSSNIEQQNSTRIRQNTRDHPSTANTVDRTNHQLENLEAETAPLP
# T2 sequence (P41146 whole entry): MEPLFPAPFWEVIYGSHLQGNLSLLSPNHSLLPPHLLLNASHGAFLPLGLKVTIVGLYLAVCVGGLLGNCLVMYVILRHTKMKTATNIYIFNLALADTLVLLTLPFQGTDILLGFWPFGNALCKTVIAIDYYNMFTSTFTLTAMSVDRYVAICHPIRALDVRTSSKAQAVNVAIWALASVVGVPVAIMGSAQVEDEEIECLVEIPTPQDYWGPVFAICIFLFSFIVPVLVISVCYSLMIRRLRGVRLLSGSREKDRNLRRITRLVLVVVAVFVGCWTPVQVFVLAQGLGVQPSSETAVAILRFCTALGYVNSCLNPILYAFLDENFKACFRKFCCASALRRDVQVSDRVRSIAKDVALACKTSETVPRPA
# T1 sequence (P41143 whole entry): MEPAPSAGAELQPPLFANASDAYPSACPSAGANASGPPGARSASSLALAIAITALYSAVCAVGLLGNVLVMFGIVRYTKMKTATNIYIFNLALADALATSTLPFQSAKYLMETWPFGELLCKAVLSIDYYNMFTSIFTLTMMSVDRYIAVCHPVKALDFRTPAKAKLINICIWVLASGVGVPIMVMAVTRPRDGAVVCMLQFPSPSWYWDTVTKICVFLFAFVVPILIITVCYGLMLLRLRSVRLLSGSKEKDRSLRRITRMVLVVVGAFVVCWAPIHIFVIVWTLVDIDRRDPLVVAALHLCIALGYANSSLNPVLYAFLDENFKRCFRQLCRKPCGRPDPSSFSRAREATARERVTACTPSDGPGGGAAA
smiles,measurement,setting,value
COC[C@H]1OC(OCc2ccc(-c3ccccc3)cc2)[C@H](NC(=O)CCCN)[C@@H](OCc2ccc(Cl)cc2)[C@@H]1O (stereo partly shown) [compound 12],A1 radioligand binding inhibition,Human δ-opioid (DOP),− (“−” indicates less than 50% inhibition at 10 μM)
same,A10 radioligand binding inhibition,Human opioid (ORL1); human ORL1 membranes,− (“−” indicates less than 50% inhibition at 10 μM)
same,A4 radioligand binding inhibition,Human Melanocortin (MC4),− (“−” indicates less than 50% inhibition at 10 μM)
same,A5 radioligand binding inhibition,Human melanocortin (MC5),− (“−” indicates less than 50% inhibition at 10 μM)
same,A8 radioligand binding inhibition,Human neurokinin (NK1),+ (“+” indicates greater than 50% inhibition at 10 μM)
same,A3 radioligand binding inhibition,Human Melanocortin (MC3),− (“−” indicates less than 50% inhibition at 10 μM)
same,A9 radioligand binding inhibition,[1]; human NPY-Y1 membranes,− (“−” indicates less than 50% inhibition at 10 μM)
same,A11 radioligand binding inhibition,Mouse urotensin (mUR2),− (“−” indicates less than 50% inhibition at 10 μM)
same,A6 radioligand binding inhibition,[2],− (“−” indicates less than 50% inhibition at 10 μM)
same,A7 radioligand binding inhibition,Human μ-opioid (MOP),− (“−” indicates less than 50% inhibition at 10 μM)
same,A2 radioligand binding inhibition,Human κ-Opioid (KOP),− (“−” indicates less than 50% inhibition at 10 μM)
CO[C@H]1[C@H](O)[C@@H](COCc2ccc(-c3ccccc3)cc2)OC(OCc2ccc3ccccc3c2)[C@@H]1NC(=O)CCNC(=N)N (stereo partly shown) [compound 67],A1 radioligand binding inhibition,Human δ-opioid (DOP),+ (“+” indicates greater than 50% inhibition at 10 μM)
same,A10 radioligand binding inhibition,Human opioid (ORL1); human ORL1 membranes,+ (“+” indicates greater than 50% inhibition at 10 μM)
same,A4 radioligand binding inhibition,Human Melanocortin (MC4),+ (“+” indicates greater than 50% inhibition at 10 μM)
same,A5 radioligand binding inhibition,Human melanocortin (MC5),+ (“+” indicates greater than 50% inhibition at 10 μM)
same,A8 radioligand binding inhibition,Human neurokinin (NK1),+ (“+” indicates greater than 50% inhibition at 10 μM)
same,A3 radioligand binding inhibition,Human Melanocortin (MC3),+ (“+” indicates greater than 50% inhibition at 10 μM)
same,A9 radioligand binding inhibition,[1]; human NPY-Y1 membranes,− (“−” indicates less than 50% inhibition at 10 μM)
same,A11 radioligand binding inhibition,Mouse urotensin (mUR2),− (“−” indicates less than 50% inhibition at 10 μM)
same,A6 radioligand binding inhibition,[2],+ (“+” indicates greater than 50% inhibition at 10 μM)
same,A7 radioligand binding inhibition,Human μ-opioid (MOP),+ (“+” indicates greater than 50% inhibition at 10 μM)
same,A2 radioligand binding inhibition,Human κ-Opioid (KOP),− (“−” indicates less than 50% inhibition at 10 μM)
N=C(N)NCC(=O)NC1C(OCc2ccc(-c3ccccc3)cc2)OC(COCc2ccc3ccccc3c2)C(O)C1OCc1ccc2ccccc2c1 (stereo not shown) [compound 402],A1: inhibition of radioligand binding,"Human δ-opioid (DOP); [3H]-Bremazocine, human DOP membranes",− (“−” indicates less than 50% inhibition at 10 μM)
same,A10: inhibition of radioligand binding,"Human opioid (ORL1); [125I]-Nociceptin, human ORL1 membranes",+ (“+” indicates greater than 50% inhibition at 10 μM)
same,A4: inhibition of radioligand binding,"Human Melanocortin (MC4); [125I]-NDP-αMSH, human MC4 membranes",+ (“+” indicates greater than 50% inhibition at 10 μM)
same,A5: inhibition of radioligand binding,"Human melanocortin (MC5); [125I]-NDP-αMSH, human MC5 membranes",+ (“+” indicates greater than 50% inhibition at 10 μM)
same,A8: inhibition of radioligand binding,"Human neurokinin (NK1); [125I]-Substance P, human NK1 membranes",+ (“+” indicates greater than 50% inhibition at 10 μM)
same,A3: inhibition of radioligand binding,"Human Melanocortin (MC3); [125I]-NDP-αMSH, human MC3 membranes",+ (“+” indicates greater than 50% inhibition at 10 μM)
same,A9: inhibition of radioligand binding,"[1]; [125I]-PYY, human NPY-Y1 membranes",− (“−” indicates less than 50% inhibition at 10 μM)
same,A11: inhibition of radioligand binding,"Mouse urotensin (mUR2); [125I]-Urotensin II, mouse mUR2 membranes",− (“−” indicates less than 50% inhibition at 10 μM)
same,A6: inhibition of radioligand binding,"[2]; [125I]-S36057, human MCH1 membranes",+ (“+” indicates greater than 50% inhibition at 10 μM)
same,A7: inhibition of radioligand binding,"Human μ-opioid (MOP); [3H]-Naloxone, human MOP membranes",− (“−” indicates less than 50% inhibition at 10 μM)
same,A2: inhibition of radioligand binding,"Human κ-Opioid (KOP); [3H]-Diprenorphine, human KOP membranes",− (“−” indicates less than 50% inhibition at 10 μM)
COCC1OC(OCc2ccccc2)C(NC(=O)CN)C(OCc2ccc(-c3ccccc3)cc2)C1O (stereo not shown) [compound 182],"A1 radioligand binding, percentage inhibition",Human δ-opioid (DOP); [3H]-Bremazocine,− (“−” indicates less than 50% inhibition at 10 μM)
same,"A10 radioligand binding, percentage inhibition",Human opioid (ORL1); [125I]-Nociceptin,− (“−” indicates less than 50% inhibition at 10 μM)
same,"A4 radioligand binding, percentage inhibition",Human Melanocortin (MC4); [125I]-NDP-αMSH,− (“−” indicates less than 50% inhibition at 10 μM)
same,"A5 radioligand binding, percentage inhibition",Human melanocortin (MC5); [125I]-NDP-αMSH,− (“−” indicates less than 50% inhibition at 10 μM)
same,"A8 radioligand binding, percentage inhibition",Human neurokinin (NK1); [125I]-Substance P,+ (“+” indicates greater than 50% inhibition at 10 μM)
same,"A3 radioligand binding, percentage inhibition",Human Melanocortin (MC3); [125I]-NDP-αMSH,− (“−” indicates less than 50% inhibition at 10 μM)
same,"A9 radioligand binding, percentage inhibition",[1]; [125I]-PYY,− (“−” indicates less than 50% inhibition at 10 μM)
same,"A11 radioligand binding, percentage inhibition",Mouse urotensin (mUR2); [125I]-Urotensin II,− (“−” indicates less than 50% inhibition at 10 μM)
same,"A6 radioligand binding, percentage inhibition",[2]; [125I]-S36057,− (“−” indicates less than 50% inhibition at 10 μM)
same,"A7 radioligand binding, percentage inhibition",Human μ-opioid (MOP); [3H]-Naloxone,− (“−” indicates less than 50% inhibition at 10 μM)
same,"A2 radioligand binding, percentage inhibition",Human κ-Opioid (KOP); [3H]-Diprenorphine,− (“−” indicates less than 50% inhibition at 10 μM)
COCC1OC(OCCc2ccccc2)C(NC(=O)CCCNC(=N)N)C(OCc2ccc(Cl)cc2)C1O (stereo not shown) [compound 223],A1: inhibition of radioligand binding,"Human δ-opioid (DOP); [3H]-Bremazocine, FlashPlate",− (“−” indicates less than 50% inhibition at 10 μM)
same,A10: inhibition of radioligand binding,"Human opioid (ORL1); [125I]-Nociceptin, FlashPlate",− (“−” indicates less than 50% inhibition at 10 μM)
same,A4: inhibition of radioligand binding,"Human Melanocortin (MC4); [125I]-NDP-αMSH, FlashPlate",+ (“+” indicates greater than 50% inhibition at 10 μM)
same,A5: inhibition of radioligand binding,"Human melanocortin (MC5); [125I]-NDP-αMSH, FlashPlate",+ (“+” indicates greater than 50% inhibition at 10 μM)
same,A8: inhibition of radioligand binding,"Human neurokinin (NK1); [125I]-Substance P, filtration",+ (“+” indicates greater than 50% inhibition at 10 μM)
same,A3: inhibition of radioligand binding,"Human Melanocortin (MC3); [125I]-NDP-αMSH, FlashPlate",− (“−” indicates less than 50% inhibition at 10 μM)
same,A9: inhibition of radioligand binding,"[1]; [125I]-PYY, FlashPlate",− (“−” indicates less than 50% inhibition at 10 μM)
same,A11: inhibition of radioligand binding,"Mouse urotensin (mUR2); [125I]-Urotensin II, FlashPlate",− (“−” indicates less than 50% inhibition at 10 μM)
same,A6: inhibition of radioligand binding,"[2]; [125I]-S36057, FlashPlate",+ (“+” indicates greater than 50% inhibition at 10 μM)
same,A7: inhibition of radioligand binding,"Human μ-opioid (MOP); [3H]-Naloxone, FlashPlate",− (“−” indicates less than 50% inhibition at 10 μM)
same,A2: inhibition of radioligand binding,"Human κ-Opioid (KOP); [3H]-Diprenorphine, filtration",− (“−” indicates less than 50% inhibition at 10 μM)

# Reference: patent US20080009418A1, “Selective Inhibitors” (Alchemia LTD., priority 2004, published 2008)
